How the values were obtained:
MsVps4ΔMIT [1] = molecular target: T1, MsVps4ΔMIT (Metallosphaera sedula, UniProt A4YHC5); experiment: ITC; assay type: binding
T1 construct: gene Msed_1672

MsVps4ΔMIT [2] = molecular target: T1, MsVps4ΔMIT; experiment: ITC, two-site model; assay type: binding
[3] = molecular target: the molecule itself; experiment: SEC; Superose 6; hVPS4B E235Q and mutants of it at 100 µM with 1 mM ATP and 5 mM MgCl2

T1 sequence (A4YHC5 entry or part of it, stated change not applied): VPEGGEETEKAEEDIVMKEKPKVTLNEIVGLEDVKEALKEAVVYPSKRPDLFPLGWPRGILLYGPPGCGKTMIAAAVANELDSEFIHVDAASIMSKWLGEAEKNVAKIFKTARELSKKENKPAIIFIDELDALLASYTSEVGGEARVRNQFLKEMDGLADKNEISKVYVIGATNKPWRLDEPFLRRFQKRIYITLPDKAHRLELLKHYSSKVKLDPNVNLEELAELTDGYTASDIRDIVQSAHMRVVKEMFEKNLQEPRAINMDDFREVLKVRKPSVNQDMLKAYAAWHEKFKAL

**Q.** For Nc1ncnc2c1ncn2[C@@H]1O[C@H](COP(=O)(O)OP(=O)(O)OP(=O)(O)O)[C@@H](O)[C@H]1O [ATP], which Kd (MsVps4ΔMIT [1]) is on record?
**A.** The Kd was 3300 nM.

**Q.** Nc1ncnc2c1ncn2[C@@H]1O[C@H](COP(=O)(O)OP(=O)(O)O)[C@@H](O)[C@H]1O [ADP] was tested. Which Kd (MsVps4ΔMIT [2]) did it give?
**A.** Its Kd is 400 nM.

B1: hVPS4B E235Q Ile124Glu (enzyme, human, UniProt O75351 1-444, looked up)
chain: MSSTSPNLQKAIDLASKAAQEDKAGNYEEALQLYQHAVQYFLHVVKYEAQGDKAKQSIRAKCTEYLDRAEKLKEYLKNKEKKAQKPVKEGQPSPADEKGNDSDGEGESDDPEKKKLQNQLQGAEVIERPNVKWSDVAGLEGAKEALKEAVILPIKFPHLFTGKRTPWRGILLFGPPGTGKSYLAKAVATEANNSTFFSISSSDLVSKWLGESEKLVKNLFQLARENKPSIIFIDQIDSLCGSRSENESEAARRIKTEFLVQMQGVGVDNDGILVLGATNIPWVLDSAIRRRFEKRIYIPLPEPHARAAMFKLHLGTTQNSLTEADFRELGRKTDGYSGADISIIVRDALMQPVRKVQSATHFKKVRGPSRADPNHLVDDLLTPCSPGDPGAIEMTWMDVPGDKLLEPVVSMSDMLRSLSNTKPTVNEHDLLKLKKFTEDFGQEG
**Q.** B1 was tested. Which “stoichiometry N” value [3] did it give?
**A.** Its value is 6.
